# According to patent publication US9199965B2, “Benzoimidazole derivatives and pharmaceutical composition comprising the same” (Daewoong Co., Ltd., priority 2005, dated 2015):
# Biological target: T1, human vanilloid-1 (hVR1) (Homo sapiens, UniProt Q8NER1)
# T1 construct: expressed in transfected cells; host or cells: HEK293 Tet-on (hVR1-HEK293), doxycycline-induced
# Assay: Calcium influx of vanilloid receptor in hVR1-HEK293 cells (capsaicin-induced, Fluo-3/AM)
# Assay type: cell-based
# Conditions: 1 μM capsaicin-induced intracellular calcium influx, read-out: Inhibitory Activity IC50
# Procedure: Experiments for calcium influx were performed to measure the activity of the compounds as antagonists.
# The cell strain hVR1-HEK293 is the human embryonic kidney (HEK) 293 Tet-on cell transfected with a human vanilloid-1 gene (pTRE2hyg-hVR1, 7.8 kb), which is capable of controlling the expression of VR1 according to the administration of deoxycycline, a tetracycline derivative analog. In a medium supplemented with deoxycycline two days before calcium influx experiments, the cell strain was cultured to induce the expression of VR1. After being grown to a confluency of about 80% in T75 flasks, hVR1-HEK293 was detached from the flask using trypsin. Cells harvested by centrifugation were suspended in a medium supplemented with 1 μg/mL of deoxycycline and diluted to a density of 2-4×10^5 cells/mL, after which a 100 μL aliquot of the cell suspension was added to each well of 96 well black plates. Before the measurement of calcium influx, the cells were incubated for two days at 37° C. in a 5% CO2 incubator.
# For use in calcium influx experiments, each compound was dissolved in dimethyl sulfoxide (DMSO).
# To measure an intracellular calcium influx, cells were incubated at 37° C. for 90 min in a medium containing the calcium indicator Fluo-3/AM so as to allow the fluorescent dye to penetrate into the cells. Then, the cells were washed three times with D-PBS (Dulbecco's phosphate buffered saline) containing 10 mM HEPES to remove the fluorescent dye which remained outside. 193 μL aliquot of D-PBS was added to each well, followed by the addition of various concentrations of compounds thereto. In order to measure the antagonistic activity of the compounds, calcium influx was induced by treatment with 1 μM capsaicin. The inhibitory effect of each compound on 1 μM capsaicin-induced intracellular calcium influx according to compound concentration was measured using a fluorescent analyzer and the data thus obtained were analyzed on the basis of the Hill's equation.
# T1 sequence (Q8NER1 whole entry): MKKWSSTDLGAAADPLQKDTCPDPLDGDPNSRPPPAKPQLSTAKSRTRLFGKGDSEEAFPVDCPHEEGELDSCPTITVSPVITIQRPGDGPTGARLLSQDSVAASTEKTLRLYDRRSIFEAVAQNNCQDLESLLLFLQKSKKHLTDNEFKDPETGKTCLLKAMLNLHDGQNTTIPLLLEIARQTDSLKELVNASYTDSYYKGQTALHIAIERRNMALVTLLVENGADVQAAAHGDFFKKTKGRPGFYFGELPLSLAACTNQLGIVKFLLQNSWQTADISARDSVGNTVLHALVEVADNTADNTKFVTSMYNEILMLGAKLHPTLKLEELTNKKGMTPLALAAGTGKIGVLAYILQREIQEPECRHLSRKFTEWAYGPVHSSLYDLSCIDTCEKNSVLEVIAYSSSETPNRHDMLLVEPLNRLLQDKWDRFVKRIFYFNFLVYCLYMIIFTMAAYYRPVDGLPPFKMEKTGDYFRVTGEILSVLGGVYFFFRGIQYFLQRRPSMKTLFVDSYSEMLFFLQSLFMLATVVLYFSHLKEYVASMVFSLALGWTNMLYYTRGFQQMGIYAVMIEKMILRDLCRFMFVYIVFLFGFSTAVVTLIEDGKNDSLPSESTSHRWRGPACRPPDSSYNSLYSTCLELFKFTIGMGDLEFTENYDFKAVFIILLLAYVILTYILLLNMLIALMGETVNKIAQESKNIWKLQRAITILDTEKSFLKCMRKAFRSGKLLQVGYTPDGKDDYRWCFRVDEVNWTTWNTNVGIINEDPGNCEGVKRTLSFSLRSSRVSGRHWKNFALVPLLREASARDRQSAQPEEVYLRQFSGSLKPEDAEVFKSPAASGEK
row,IC50,Structure (SMILES)
1,289 nM,"Clc1cccnc1-c1ccc(-c2nc3ccc(Br)cc3[nH]2)cc1 [Compound 13, 6-bromo-2-(4-(3-chloropyridin-2-yl)phenyl)-1H-benzoimidazole]"
2,168 nM,"FC(F)(F)c1cc(Br)c2nc(-c3ccc(-c4ncccc4Cl)cc3)[nH]c2c1 [Compound 14, 4-bromo-2-(4-(3-chloropyridin-2-yl)phenyl)-6-(trifluoromethyl)-1H-benzoimidazole]"
3,39 nM,"FC(F)(F)c1cccnc1-c1ccc(-c2nc3cc(Cl)c(Cl)cc3[nH]2)cc1 [Compound 35, 5,6-dichloro-2-[4-(3-trifluoromethylpyridin-2-yl)phenyl]-1H-benzoimidazole]"
4,454 nM,"Fc1ccc2nc(-c3ccc(-c4ncccc4C(F)(F)F)cc3)[nH]c2c1 [Compound 38, 6-fluoro-2-(4-(3-(trifluoromethyl)pyridin-2-yl)phenyl)-1H-benzoimidazole]"
5,19 nM,FC(F)(F)c1cccnc1-c1ccc(-c2nc3ncc(Br)cc3[nH]2)cc1 [Compound 39]
6,82 nM,"CC(C)(C)c1ccc2nc(-c3ccc(-c4ccccn4)cc3)[nH]c2c1 [Compound 47, 6-tert-butyl-2-(4-pyridin-2-ylphenyl)-1H-benzoimidazole]"
7,160 nM,"FC(F)(F)c1ccc2nc(-c3ccc(-c4ccccn4)cc3)[nH]c2c1 [Compound 48, 6-(trifluoromethyl)-2-(4-(pyridin-2-yl)phenyl)-1H-benzoimidazole]"
8,284 nM,"FC(F)(F)c1cc(Cl)c2nc(-c3ccc(-c4ccccn4)cc3)[nH]c2c1 [Compound 49, 4-chloro-6-(trifluoromethyl)-2-(4-(pyridin-2-yl)phenyl)-1H-benzoimidazole]"
9,292 nM,"Clc1cc2nc(-c3ccc(-c4ccccn4)cc3)[nH]c2cc1Cl [Compound 50, 5,6-dichloro-2-(4-(pyridin-2-yl)phenyl)-1H-benzoimidazole]"
10,246 nM,"FC(F)(F)c1cc(C(F)(F)F)c2nc(-c3ccc(-c4ccccn4)cc3)[nH]c2c1 [Compound 51, 4,6-bis(trifluoromethyl)-2-(4-(pyridin-2-yl)phenyl)-1H-benzoimidazole]"
11,1400 nM,"Fc1ccc2nc(-c3ccc(-c4ccccn4)cc3)[nH]c2c1 [Compound 52, 6-fluoro-2-(4-(pyridin-2-yl)phenyl)-1H-benzoimidazole]"
12,145 nM,"Brc1cnc2nc(-c3ccc(-c4ccccn4)cc3)[nH]c2c1 [Compound 53, 6-bromo-2-(4-(pyridin-2-yl)phenyl)-1H-imidazo[4,5-b]pyridine]"
13,22 nM,"FC(F)(F)c1cc(Br)c2nc(-c3ccc(-c4nccc(C(F)(F)F)n4)cc3)[nH]c2c1 [Compound 56, 4-bromo-6-(trifluoromethyl)-2-(4-(4-(trifluoromethyl)pyrimidin-2-yl)phenyl)-1H-benzoimidazole]"
14,145 nM,"CC(C)(C)c1ccc2nc(-c3ccc(-c4ncccn4)cc3)[nH]c2c1 [Compound 58, 6-tert-butyl-2-(4-(pyrimidin-2-yl)phenyl)-1H-benzoimidazole]"
15,296 nM,"N#Cc1cccnc1-c1ccc(-c2nc3ccc(C(F)(F)F)cc3[nH]2)cc1 [Compound 59, 2-(4-(6-(trifluoromethyl)-1H-benzoimidazole-2-yl)phenyl)pyridin-3-carbonitrile]"
16,150 nM,CC(C)(C)c1ccc2nc(-c3ccc(-c4ncccc4C#N)cc3)[nH]c2c1 [Compound 60]
17,263 nM,"CC(C)(C)c1ccc2nc(-c3ccc(-c4ccccn4)cc3F)[nH]c2c1 [Compound 82, 6-tert-butyl-2-(2-fluoro-4-pyridin-2-yl)phenyl-1H-benzoimidazole]"

row,IC50,Structure (SMILES)
1,644 nM,"FC(F)(F)c1ccc2nc(-c3ccc(-c4ncccc4C(F)(F)F)cc3Cl)[nH]c2c1 [Compound 97, 2-[2-chloro-4-(3-trifluoromethylpyridin-2-yl)phenyl]-6-trifluoromethyl-1H-benzoimidazole]"
2,275 nM,"FC(F)(F)c1cc(C(F)(F)F)c2nc(-c3ccc(-c4ncccc4Cl)c4ccccc34)[nH]c2c1 [Compound 106, 2-[4-(3-chloropyridin-2-yl)naphthalen-1-yl]-4,6-bistrifluoromethyl-1H-benzoimidazole]"
3,363 nM,"FC(F)(F)c1ccc2nc(-c3ccc(-c4ncccc4C(F)(F)F)c4ccccc34)[nH]c2c1 [Compound 113, 6-trifluoromethyl-2-[4-(3-trifluoromethylpyridin-2-yl)naphthalen-1-yl]-1H-benzoimidazole]"
4,3960 nM,"Clc1cc2nc(-c3ccc(-c4ccccn4)c(Cl)c3)[nH]c2cc1Cl [Compound 129, 5,6-dichloro-2-(3-chloro-4-(pyridin-2-yl)phenyl)-1H-benzoimidazole]"
5,436 nM,"Clc1cc(-c2nc3ccc(Br)cc3[nH]2)ccc1-c1ccccn1 [Compound 130, 6-bromo-2-(3-chloro-4-(pyridin-2-yl)phenyl)-1H-benzoimidazole]"
6,952 nM,"FC(F)(F)c1ccc2nc(-c3ccc(-c4ncccc4Cl)cn3)[nH]c2c1 [Compound 136, 3-chloro-6′-(6-trifluoromethyl-1H-benzoimidazole-2-yl)-[2,3′]bipyridine]"
7,569 nM,"Clc1ccc2nc(-c3ccc(-c4ncccc4Cl)cn3)[nH]c2c1 [Compound 137, 3-chloro-6′-(6-chloro-1H-benzoimidazole-2-yl)-[2,3′]bipyridine]"
8,66 nM,"FC(F)(F)c1cc(Br)c2nc(-c3ccc(-c4ncccc4Cl)cn3)[nH]c2c1 [Compound 140, 4-bromo-2-(5-(3-chloropyridin-2-yl)pyridin-2-yl)-6-(trifluoromethyl)-1H-benzoimidazole]"
9,2400 nM,"Clc1cccnc1-c1ccc(-c2nc3ccc(Br)cc3[nH]2)nc1 [Compound 141, 6-bromo-2-(5-(3-chloropyridin-2-yl)pyridin-2-yl)-1H-benzoimidazole]"
10,3950 nM,"CC(C)(C)c1ccc2nc(-c3ccc(-c4ncccc4C(F)(F)F)cn3)[nH]c2c1 [Compound 159, 6′-(6-tert-butyl-1H-benzoimidazole-2-yl)-3-trifluoromethyl-[2,3′]bipyridine]"
11,258 nM,"FC(F)(F)c1cccnc1-c1ccc(-c2nc3ccc(Cl)cc3[nH]2)nc1 [Compound 160, 6′-(6-chloro-1H-benzoimidazole-2-yl)-3-trifluoromethyl-[2,3′]bipyridine]"
12,3900 nM,"Fc1ccc2nc(-c3ccc(-c4ncccc4C(F)(F)F)cn3)[nH]c2c1 [Compound 166, 6-fluoro-2-(5-(3-(trifluoromethyl)pyridin-2-yl)pyridin-2-yl)-1H-benzoimidazole]"
13,46 nM,"Clc1cc2nc(-c3ccc(-c4ccccn4)cn3)[nH]c2cc1Cl [Compound 173, 5,6-dichloro-2-(5-(pyridin-2-yl)pyridin-2-yl)-1H-benzoimidazole]"
14,282 nM,"CC(C)(C)c1ccc2nc(-c3ccc(-c4cccc5ccccc45)nc3)[nH]c2c1 [Compound 174, 6-tert-butyl-2-(6-naphthalen-1-ylpyridin-3-yl)-1H-benzoimidazole]"
15,229 nM,"FC(F)(F)c1ccc2nc(-c3ccc(-c4cccc5ccccc45)nc3)[nH]c2c1 [Compound 176, 6-(trifluoromethyl)-2-(6-(naphthalen-1-yl)pyridin-3-yl)-1H-benzoimidazole]"
16,151 nM,"Clc1ccc2nc(-c3ccc(-c4cccc5ccccc45)nc3)[nH]c2c1 [Compound 177, 6-chloro-2-(6-(naphthalen-1-yl)pyridin-3-yl)-1H-benzoimidazole]"
